Common to all, as to assay type: cell-based, human
In one test the test system is IL-6. In words: IL-6 assay (ELISA) in Ad5-wt-ER infected HAECT-1 cells (IL-1β induced). As to conditions: for Emax: HAECT1, relative to maximal inhibition observed with E2, read-out: IL-6 Efficacy; for IL-6 Efficacy: relative to maximal inhibition observed with E2. As for the experimental part: (§1) After four hours, cells were washed with EBM-BSA and incubated overnight in the same medium. […] After two hours, cells were washed and incubated at 34° C. for 1 hour. […] Control (no ER infection) cells were processed as above without Ad5-wt-hERα virus infection. […] Cells were subsequently washed with 300 μl of Dulbecco's phosphate buffered saline and lysed in 50 μl of Cell Culture Lysis Reagent (Promega). Luciferase was determined on a Wallac Victor^2 Luminometer (Gaithersburg, Md.) using 10 μl of lysate and mixing with 100 lμof Promega Luciferase Assay reagent. […] For IC50 and EC50 calculations, mean IL-6, luciferase or CK values versus log10 of the compound concentration were fitted to a four parameter logistic equation. The IC50/EC50 value, ‘Hill slope’, upper and lower limits of the curve were iteratively estimated.
For orientation: ELISA stands for enzyme-linked immunosorbent assay.

In a further test the test system is creatine kinase. The experiment in a line: Creatine kinase assay in Ad5-wt-ER infected HAECT-1 cells. As to conditions: for EC50 / Emax: Homo sapiens; for EC50: HAECT1, CK stimulation, N/O = activity not observed at concentrations tested, read-out: CK IC50; for Emax: HAECT1, relative to maximal stimulation observed with E2, read-out: CK Efficacy; for CK Efficacy: relative to maximal stimulation observed with E2. The procedure: as §1

In another test the test system is ER/Nf-kB. In words: ER/NF-κB luciferase reporter assay in Ad5-wt-ER infected HAECT-1 cells (IL-1β induced). The conditions noted are these: for ER/Nf-kB Efficacy: relative to maximal inhibition observed with E2. The procedure: as §1
A general note: A reporter such as luciferase makes a cellular process visible.

Read-outs that look alike come from different tables or passages of the source.

From patent US7563793B2, “Pyrrolo[1,2-a]quinoxalin-5-(4H)-yl)sulfonyls and carbonyls and their use as estrogenic agents” (Wyeth, priority 2004, dated 2009) come the findings set out here.

As a reminder, the IC50 is the concentration needed to halve the response being measured. A low value points to higher potency. In the test on IL-6 (Homo sapiens, HAECT1), `C[C@H]1c2cccn2-c2ccc(Br)cc2N1C(=O)c1cccc(O)c1` [107 (S), 3-{[(4S)-7-bromo-4-methylpyrrolo[1,2-a]quinoxalin-5(4H)-yl]carbonyl}phenol] displayed an IC50 of 1060 nM. Moreover, the Emax in the test with IL-6 (Homo sapiens) amounted to 66%.

In the test on IL-6 (Homo sapiens, HAECT1), `CC[C@@H]1c2cccn2-c2ccc(Br)cc2N1C(=O)c1ccc(O)cc1` [111 (R), 4-{[(4R)-7-bromo-4-ethylpyrrolo[1,2-a]quinoxalin-5(4H)-yl]carbonyl}phenol] yielded a half-inhibitory concentration (IC50) of 46 nM. The figures for the Emax in the test with IL-6 (Homo sapiens) and with creatine kinase were 87% and 40%, respectively. In addition, the EC50 in the test on creatine kinase was 117 nM.

In the case of `CC[C@H]1c2cccn2-c2ccc(Br)cc2N1C(=O)c1ccc(O)cc1` [111 (S), 4-{[(4S)-7-bromo-4-ethylpyrrolo[1,2-a]quinoxalin-5(4H)-yl]carbonyl}phenol], in the test with IL-6 (Homo sapiens, HAECT1), half-maximal inhibition (IC50) was put at 1090 nM. The Emax in the test on IL-6 (Homo sapiens) came out at 65%.

On to `CC(C)(C)[C@@H]1c2cccn2-c2ccc(Br)cc2N1C(=O)c1cccc(O)c1` [115 (R), 3-{[(4R)-7-bromo-4-tert-butylpyrrolo[1,2-a]quinoxalin-5(4H)-yl]carbonyl}phenol], for which half-maximal inhibition in the test with IL-6 (Homo sapiens, HAECT1) (IC50) required 647 nM. In addition, the Emax with IL-6 (Homo sapiens) stood at 82%.

For the molecule `CC(C)(C)[C@H]1c2cccn2-c2ccc(Br)cc2N1C(=O)c1cccc(O)c1` [115 (S), 3-{[(4S)-7-bromo-4-tert-butylpyrrolo[1,2-a]quinoxalin-5(4H)-yl]carbonyl}phenol], the half-inhibitory concentration (IC50) in the test on IL-6 (Homo sapiens, HAECT1) was 455 nM. The Emax in the test on IL-6 (Homo sapiens) was 94%.

As for `CC[C@@H]1c2cccn2-c2ccc(F)cc2N1C(=O)c1ccc(O)cc1` [119 (R), 4-{[(4R)-4-ethyl-7-fluoropyrrolo[1,2-a]quinoxalin-5(4H)-yl]carbonyl}phenol], the half-inhibitory concentration (IC50) in the test on IL-6 (Homo sapiens, HAECT1) came to 8 nM. The Emax in the test with IL-6 (Homo sapiens) turned out to be 95%. Further, in the test on creatine kinase, the EC50 amounted to 11 nM and the Emax was 27%.

In the test with IL-6 (Homo sapiens, HAECT1), `CC[C@H]1c2cccn2-c2ccc(F)cc2N1C(=O)c1ccc(O)cc1` [119 (S), 4-{[(4S)-4-ethyl-7-fluoropyrrolo[1,2-a]quinoxalin-5(4H)-yl]carbonyl}phenol] displayed an IC50 of 101 nM. Moreover, the Emax in the test with IL-6 (Homo sapiens) worked out at 79%.

In the case of `CC[C@@H]1c2cccn2-c2ccc(F)cc2N1C(=O)c1ccc(O)cc1O` [121 (R), 4-{[(4R)-4-ethyl-7-fluoropyrrolo[1,2-a]quinoxalin-5(4H)-yl]carbonyl}benzene-1,3-diol], half-maximal inhibition in the test on IL-6 (Homo sapiens, HAECT1) (IC50) required 1.6 nM. In the test with IL-6 (Homo sapiens), the Emax amounted to 108%. In the test with creatine kinase, the EC50 is 13 nM and the Emax worked out at 36%.

The molecule `CC[C@H]1c2cccn2-c2ccc(F)cc2N1C(=O)c1ccc(O)cc1O` [121 (S), 4-{[(4S)-4-ethyl-7-fluoropyrrolo[1,2-a]quinoxalin-5(4H)-yl]carbonyl}benzene-1,3-diol] returned a half-inhibitory concentration (IC50) with IL-6 (Homo sapiens, HAECT1) of 72 nM. Besides, the Emax with IL-6 (Homo sapiens) amounted to 95%. Besides, in the test with creatine kinase, the EC50 came to 64 nM and the Emax stood at 32%.

As for `C[C@H]1c2cccn2-c2ccc(F)cc2N1C(=O)c1ccc(O)cc1` [123 (S), 4-{[(4S)-7-fluoro-4-methylpyrrolo[1,2-a]quinoxalin-5(4H)-yl]carbonyl}phenol], the IC50 with IL-6 (Homo sapiens, HAECT1) was 606 nM. In addition, in the test on IL-6 (Homo sapiens), the Emax stood at 47%.

As for `CC[C@H]1c2cccn2-c2ccc(Cl)cc2N1C(=O)c1ccc(O)cc1O` [125 (S), 4-{[(4S)-7-chloro-4-ethylpyrrolo[1,2-a]quinoxalin-5(4H)-yl]carbonyl}benzene-1,3-diol], in the test with IL-6 (Homo sapiens, HAECT1), the IC50 came out at 1100 nM. Besides, the Emax in the test with IL-6 (Homo sapiens) was 81%. In the test on creatine kinase, the EC50 worked out at 68 nM and the Emax worked out at 15%.

In the test on IL-6 (Homo sapiens, HAECT1), `CC[C@H]1c2cccn2-c2ccc(F)cc2N1C(=O)c1cccc(O)c1` [127 (S), 3-{[(4S)-4-ethyl-7-fluoropyrrolo[1,2-a]quinoxalin-5(4H)-yl]carbonyl}phenol] yielded an IC50 of 1330 nM. Moreover, the Emax in the test on IL-6 (Homo sapiens) turned out to be 41%. For the same molecule, in the test on creatine kinase, the EC50 amounted to 33 nM and the Emax was 33%.

Consider `C[C@@H]1c2cccn2-c2ccc(F)cc2N1C(=O)c1cccc(O)c1` [131 (R), 3-{[(4R)-4-methyl-7-fluoropyrrolo[1,2-a]quinoxalin-5(4H)-yl]carbonyl}phenol], for which the IC50 in the test with IL-6 (Homo sapiens, HAECT1) is 179 nM. Moreover, the Emax in the test with IL-6 (Homo sapiens) came to 103%.

Regarding `C[C@H]1c2cccn2-c2ccc(F)cc2N1C(=O)c1cccc(O)c1` [131 (S), 3-{[(4S)-4-methyl-7-fluoropyrrolo[1,2-a]quinoxalin-5(4H)-yl]carbonyl}phenol], the IC50 with IL-6 (Homo sapiens, HAECT1) amounted to 1460 nM. The Emax in the test on IL-6 (Homo sapiens) came to 69%.

With `CC1c2ccc(F)n2-c2cc(F)c(F)cc2N1S(=O)(=O)c1ccc(O)cc1` (stereo not drawn) [Example 13, 4-[(1,7,8-trifluoro-4-methylpyrrolo[1,2-a]quinoxalin-5-(4H)-yl)sulfonyl]phenol], in the test with ER/Nf-kB, the half-maximal inhibitory concentration (IC50) was found to be 20 nM and the “ER/Nf-kB Efficacy” value amounted to 104%.

Regarding `CC1(C)c2cccn2-c2cc(F)c(F)cc2N1S(=O)(=O)c1ccc(O)cc1` [Example 15, 4-[(7,8-difluoro-4,4-dimethylpyrrolo[1,2-a]quinoxalin-5-(4H)-yl)sulfonyl]phenol], in the test on ER/Nf-kB, the midpoint of inhibition, the IC50, lay at 150 nM and the “ER/Nf-kB Efficacy” value is recorded as 105%.

Consider `CCC1c2ccc(F)n2-c2ccc(F)cc2N1S(=O)(=O)c1ccc(O)cc1` (stereo not drawn) [Example 23, 4-[(4-ethyl-1,7-difluoropyrrolo[1,2-a]quinoxalin-5-(4H)-yl)sulfonyl]phenol], for which, in the test with IL-6, the IC50 was found to be 6.6 nM and the “IL-6 Efficacy” value was found to be 162%. For the same molecule, in the test on creatine kinase, the “CK Efficacy” value stood at 52%.

Turning to `CCC1c2cccn2-c2cc(F)c(F)cc2N1S(=O)(=O)c1ccc(OS(N)(=O)=O)cc1` (stereo not drawn) [Example 105, 4-{4-ethyl-7,8-difluoropyrrolo[1,2-a]quinoxalin-5(4H)-yl]sulfonyl}phenyl sulfamate], in the test with IL-6, the IC50 turned out to be 2 nM and the “IL-6 Efficacy” value was determined as 116%. For the same molecule, in the test with creatine kinase, the “CK Efficacy” value came out at 49%.

Consider `CC1c2cccn2-c2ccc(Br)cc2N1C(=O)c1cccc(O)c1` (stereo not drawn) [Example 106, 3-[(7-bromo-4-methylpyrrolo[1,2-a]quinoxalin-5(4H)-yl)carbonyl]phenol], for which the IC50 with IL-6 (Homo sapiens, HAECT1) stood at 10 nM. Also, the Emax with IL-6 (Homo sapiens) came out at 54%.

Consider `CC1c2cccn2-c2ccc(Br)cc2N1C(=O)c1ccc(O)cc1` (stereo not drawn) [Example 108, 4-[(7-bromo-4-methylpyrrolo[1,2-a]quinoxalin-5(4H)-yl)carbonyl]phenol], for which half-maximal inhibition in the test with IL-6 (Homo sapiens, HAECT1) (IC50) required 53 nM. Further, in the test with IL-6 (Homo sapiens), the Emax was determined as 118%. For the same molecule, in the test on creatine kinase, the EC50 is 18 nM and the Emax stood at 7%.

In the test with IL-6 (Homo sapiens, HAECT1), `CC1c2cccn2-c2ccc(Br)cc2N1C(=O)c1ccc(O)cc1O` (stereo not drawn) [Example 109, 4-[(7-bromo-4-methylpyrrolo[1,2-a]quinoxalin-5(4H)-yl)carbonyl]benzene-1,3-diol] had an IC50 of 42 nM. Besides, the Emax with IL-6 (Homo sapiens) came out at 128%. In the test on creatine kinase, the EC50 was determined as 398 nM and the Emax came out at 40%.

`CCC1c2cccn2-c2ccc(Br)cc2N1C(=O)c1ccc(O)cc1` (stereo not drawn) [Example 110, 4-[(7-bromo-4-ethylpyrrolo[1,2-a]quinoxalin-5(4H)-yl)carbonyl]phenol] yielded an IC50 in the test on IL-6 (Homo sapiens, HAECT1) of 369 nM. Also, in the test with IL-6 (Homo sapiens), the Emax came out at 78%.

On to `CCC1c2cccn2-c2ccc(Br)cc2N1C(=O)c1cccc(O)c1` (stereo not drawn) [Example 112, 3-[(7-bromo-4-ethylpyrrolo[1,2-a]quinoxalin-5(4H)-yl)carbonyl]phenol], for which half-maximal inhibition in the test with IL-6 (Homo sapiens, HAECT1) (IC50) required 152 nM. The Emax in the test with IL-6 (Homo sapiens) was 88%. Moreover, in the test with creatine kinase, the EC50 was 207 nM and the Emax was determined as 21%.

For the molecule `CCC1c2cccn2-c2ccc(Br)cc2N1C(=O)c1ccc(O)cc1O` (stereo not drawn) [Example 113, 4-[(7-bromo-4-ethylpyrrolo[1,2-a]quinoxalin-5(4H)-yl)carbonyl]benzene-1,3-diol], the IC50 in the test on IL-6 (Homo sapiens, HAECT1) was found to be 9.5 nM. The Emax amounted to 101% in the test on IL-6 (Homo sapiens) and 28% with creatine kinase. Besides, the EC50 in the test on creatine kinase worked out at 25 nM.

`CC(C)(C)C1c2cccn2-c2ccc(Br)cc2N1C(=O)c1cccc(O)c1` (stereo not drawn) [Example 114, 3-[(7-bromo-4-tert-butylpyrrolo[1,2-a]quinoxalin-5(4H)-yl)carbonyl]phenol]: half-maximal inhibition with IL-6 (Homo sapiens, HAECT1) (IC50) was put at 441 nM. In the test with IL-6 (Homo sapiens), the Emax was 38%.

In the test with IL-6 (Homo sapiens, HAECT1), `CC(C)(C)C1c2cccn2-c2ccc(Br)cc2N1C(=O)c1ccc(O)cc1` (stereo not drawn) [Example 116, 4-[(7-bromo-4-tert-butylpyrrolo[1,2-a]quinoxalin-5(4H)-yl)carbonyl]phenol] gave an IC50 of 207 nM. In addition, the Emax in the test with IL-6 (Homo sapiens) amounted to 90%.

Take `CC(C)(C)C1c2cccn2-c2ccc(Br)cc2N1C(=O)c1ccc(O)cc1O` (stereo not drawn) [Example 117, 4-[(7-bromo-4-tert-butylpyrrolo[1,2-a]quinoxalin-5(4H)-yl)carbonyl]benzene-1,3-diol]: 9 nM corresponded to half-maximal inhibition with IL-6 (Homo sapiens, HAECT1) (IC50). In the test on IL-6 (Homo sapiens), the Emax amounted to 90%. In addition, in the test on creatine kinase, the EC50 was 33 nM and the Emax stood at 42%.

`CC[C@@H]1c2ccc(C#N)n2-c2ccc(F)cc2N1C(=O)c1ccc(O)cc1` [Example 128, (4R)-4-ethyl-7-fluoro-5-(4-hydroxybenzoyl)-4,5-dihydropyrrolo[1,2-a]quinoxaline-1-carbonitrile] displayed a concentration for half-maximal inhibition (IC50) in the test on IL-6 (Homo sapiens, HAECT1) of 64 nM. Moreover, the Emax with IL-6 (Homo sapiens) was determined as 111%.

Take `CC[C@H]1c2ccc(C#N)n2-c2ccc(F)cc2N1C(=O)c1ccc(O)cc1` [Example 129, (4S)-4-ethyl-7-fluoro-5-(4-hydroxybenzoyl)-4,5-dihydropyrrolo[1,2-a]quinoxaline-1-carbonitrile]: in the test on IL-6 (Homo sapiens, HAECT1), 29 nM corresponded to half-maximal inhibition (IC50). Further, the Emax with IL-6 (Homo sapiens) was -77%; in the test with creatine kinase, -7%. For the same molecule, the EC50 with creatine kinase was 636 nM.
